Laboratory results published in patent publication US12590118B2, “Salt and crystal form of steroid derivative regulator” (Shanghai Hansoh Biomedical Co., Ltd., priority 2019, dated 2026).

Columns and labels:
[1] = Competitive experiment of different crystal forms of the free base; type: physicochemical; settings: 40° C.
Procedure: The stability among crystal forms I, II and III of the free base of Example 40 was investigated, so as to select the stable crystal form.
Multiple portions of about 20 mg of crystal forms I, II and III of the free base of Example 40 were accurately weighed, and mixed in pairs in equal amounts. Methyl tert-butyl ether and n-heptane were added respectively, and the resulting mixture was stirred at 40° C. for 7 days. The mixture was centrifuged at high speed, the supernatant was removed, and the resulting solid precipitate was vacuum dried in an oven at 40° C. and characterized by XRPD.

[2] = Solid stability experiment (total impurities); type: physicochemical
Procedure: The physicochemical stability of candidate crystal forms I, II and III of the free base of Example 40 under influencing factors such as high temperature, high humidity and strong light was investigated, so as to provide a basis for the production and storage of the compound.
The related substance change of the free base was calculated by chromatographic peak area normalization method.

[3] = target: T1, human GABAA receptor α1, β2 and γ2 subunit (HEK293T cell line) (Homo sapiens, UniProt P14867+P47870); assay: Positive regulatory effect on GABAA receptor, manual patch clamp; type: cell-based; settings: whole-cell current, 1 μM GABA
T1 construct: expressed in transfected cells
Procedure: The objective of this test example is to determine the positive regulatory effect of the compound on GABAA receptor by the electrophysiological manual patch clamp method.
Manual patch clamp system HEKA EPC10 USB signal amplifier and digital conversion system (purchased from HEKA Electronics, Germany), centrifuge (Eppendorf, etc.), carbon dioxide incubator (purchased from Thermo, etc.), biological safety cabinet (Thermo, etc.), pipette (purchased from Eppendorf, etc.).
The cells were grown in a culture dish with DMEM medium (purchased from Invitrogen), and cultured in an incubator at 37° C. and 5% CO2. Before the electrophysiological experiment, the cells were transferred to a round glass slide placed in the culture dish, and grown in the same culture medium and under the same culture condition as above. The density of cells on each round glass slide should meet the requirement that most cells were independent and individual.
Each test compound was diluted in gradient with DMSO to obtain a stock solution, which was then diluted with extracellular fluid by 1,000-fold to obtain the final test concentration. The final concentration of DMSO in the compound solution with each concentration was 0.1%. The experiment used the manual patch clamp system HEKA EPC10 USB signal amplifier and digital conversion system for whole cell current recording. The round glass slide with HEK293T GABAA cells grown on the surface was taken out of the culture dish, and placed in the electrophysiological recording tank under the inverted microscope. The recording tank was continuously perfused with extracellular fluid. During the experiment, the whole-cell current recording technology was used to record the chloride current of the GABAA channel. 1 μM GABA was used to activate the chloride current of the GABAA channel of each cell as an initial control. 1 μM GABA acted on the cell through the drug perfusion system to induce the chloride current of the GABAA channel, the action time was about 3 to 5 seconds, and the current value was used as the initial control value. The test concentration of compound was perfused and incubated for 2 to 5 minutes. […] GABA solution (mixed with the test concentration of compound) was given to the cells to observe the enhancement effect of the test compound on the current induced by 1 μM GABA. When the cell state was stable, the test compound acted on the same cell from low to high concentration to record the enhancement effect of the induced current.
The experimental data was analyzed by HEKA Patchmaster, Microsoft Excel and the data analysis software provided by Graphpad Prism.

T1 sequence (P14867 28-456): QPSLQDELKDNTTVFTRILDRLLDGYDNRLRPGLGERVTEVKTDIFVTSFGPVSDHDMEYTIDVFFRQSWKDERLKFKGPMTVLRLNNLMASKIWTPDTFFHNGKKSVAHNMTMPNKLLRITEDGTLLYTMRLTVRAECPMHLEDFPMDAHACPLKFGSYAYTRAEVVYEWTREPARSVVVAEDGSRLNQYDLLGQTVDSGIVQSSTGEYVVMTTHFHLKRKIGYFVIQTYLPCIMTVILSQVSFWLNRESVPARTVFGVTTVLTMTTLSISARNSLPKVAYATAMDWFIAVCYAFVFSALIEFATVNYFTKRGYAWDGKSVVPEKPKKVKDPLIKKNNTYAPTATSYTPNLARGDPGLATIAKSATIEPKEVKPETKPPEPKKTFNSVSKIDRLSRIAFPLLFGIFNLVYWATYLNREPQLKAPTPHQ
T1 sequence (P47870 25-512 limits assumed): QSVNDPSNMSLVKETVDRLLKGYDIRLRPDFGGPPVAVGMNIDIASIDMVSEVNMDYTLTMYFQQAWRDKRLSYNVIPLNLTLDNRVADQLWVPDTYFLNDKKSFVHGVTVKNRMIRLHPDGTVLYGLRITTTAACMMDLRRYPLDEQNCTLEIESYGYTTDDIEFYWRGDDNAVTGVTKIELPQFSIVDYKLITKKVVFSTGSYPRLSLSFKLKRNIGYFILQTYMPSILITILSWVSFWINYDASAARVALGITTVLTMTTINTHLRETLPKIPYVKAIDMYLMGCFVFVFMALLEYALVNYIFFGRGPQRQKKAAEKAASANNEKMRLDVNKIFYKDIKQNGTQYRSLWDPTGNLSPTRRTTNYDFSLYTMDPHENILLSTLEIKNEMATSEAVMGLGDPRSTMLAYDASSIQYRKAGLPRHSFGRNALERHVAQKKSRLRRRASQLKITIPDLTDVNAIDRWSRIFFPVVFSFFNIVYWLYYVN
T1 sequence (P18507 40-475 partner): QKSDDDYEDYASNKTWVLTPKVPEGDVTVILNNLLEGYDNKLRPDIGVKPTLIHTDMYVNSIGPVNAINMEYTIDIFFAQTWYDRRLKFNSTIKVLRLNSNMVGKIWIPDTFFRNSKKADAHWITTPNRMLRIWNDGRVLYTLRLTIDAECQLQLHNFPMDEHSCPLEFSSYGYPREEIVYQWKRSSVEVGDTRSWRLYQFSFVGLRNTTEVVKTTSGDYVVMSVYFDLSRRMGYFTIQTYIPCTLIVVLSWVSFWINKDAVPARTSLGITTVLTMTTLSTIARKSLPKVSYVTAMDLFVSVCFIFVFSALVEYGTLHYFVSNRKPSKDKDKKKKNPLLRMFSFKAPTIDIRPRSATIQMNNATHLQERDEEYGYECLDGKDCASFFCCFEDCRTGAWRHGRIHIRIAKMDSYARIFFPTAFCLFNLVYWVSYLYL

SMILES	solubility in n-heptane (in words) [1]	Total impurities (%) ([2]; 50° C./75% RH Open, 5 d)	Total impurities (%) ([2]; 50° C./75% RH Open, 10 d)	Total impurities (%) ([2]; 60° C. Sealed, 5 d)	Total impurities (%) ([2]; 60° C. Sealed, 10 d)	Total impurities (%) ([2]; Initial sample, 0 d)	Total impurities (%) ([2]; Light 5k lux Sealed, 10 d)	Total impurities (%) ([2]; Light 5k lux Sealed, column printed 10 d)	Total impurities (%) ([2]; RT/90% RH Open, 5 d)	Total impurities (%) ([2]; RT/90% RH Open, column printed 5 d)	change of impurities (in words) ([2]; high temperature, high humidity and light for 10 days)	EC50 [3]
C[C@@H]1C[C@H](C(=O)Cn2ccc(C#N)n2)[C@@]2(C)CC[C@H]3[C@@H](CC[C@@H]4C[C@](C)(O)CC[C@@H]43)[C@H]12 [Crystal form I, 1-(2-((3R,5R,8R,9R,10S,13S,14S,15R,17S)-3-Hydroxy-3,13,15-trimethylhexadecahydro-1H-cyclopenta[a]phenanthren-17-yl)-2-oxoethyl)-1H-pyrazole-3-carbonitrile]	almost insoluble	0.56%	0.59%	0.55%	0.56%	0.59%	0.56%	0.57%	0.56%	0.56%	the impurities did not increase	–
C[C@@H]1C[C@H](C(=O)Cn2ccc(C#N)n2)[C@@]2(C)CC[C@H]3[C@@H](CC[C@@H]4C[C@](C)(O)CC[C@@H]43)[C@H]12 [Example 40, 1-(2-((3R,5R,8R,9R,10S,13S,14S,15R,17S)-3-Hydroxy-3,13,15-trimethylhexadecahydro-1H-cyclopenta[a]phenanthren-17-yl)-2-oxoethyl)-1H-pyrazole-3-carbonitrile]	–	–	–	–	–	–	–	–	–	–	–	0.057 µM
